From ChEMBL document CHEMBL4699602, “Stapled and Xenopus Glucagon-Like Peptide 1 (GLP-1)-Based Dual GLP-1/Gastrin Receptor Agonists with Improved Metabolic Benefits in Rodent Models of Obesity and Diabetes” (J Med Chem, 2020)
Where a SMILES comes first, the peptide text is derived from it.

What follows are compounds tested against Glucagon-like peptide 1 receptor (Homo sapiens, UniProt P43220) (assay: Agonist activity at human GLP-1R expressed in HEK293 cells assessed as stimulation of cAMP accumulation incubated for 20 mins).
Chain of Glucagon-like peptide 1 receptor (P43220 whole entry): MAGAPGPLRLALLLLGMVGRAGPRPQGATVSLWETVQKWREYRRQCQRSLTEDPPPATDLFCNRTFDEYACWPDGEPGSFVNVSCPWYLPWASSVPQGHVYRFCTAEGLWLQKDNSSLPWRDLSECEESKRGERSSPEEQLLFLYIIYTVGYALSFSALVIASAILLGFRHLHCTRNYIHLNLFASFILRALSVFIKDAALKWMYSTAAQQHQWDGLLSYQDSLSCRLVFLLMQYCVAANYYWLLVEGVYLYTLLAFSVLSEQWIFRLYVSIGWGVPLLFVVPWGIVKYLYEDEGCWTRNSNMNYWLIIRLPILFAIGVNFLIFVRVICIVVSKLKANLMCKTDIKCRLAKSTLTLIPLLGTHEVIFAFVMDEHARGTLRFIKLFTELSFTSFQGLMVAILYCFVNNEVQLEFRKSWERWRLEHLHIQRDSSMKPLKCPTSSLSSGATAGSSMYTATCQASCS
Format: functional, cell-based

| SMILES | EC50 |
| --- | --- |
| CC[C@H](C)[C@H](NC(=O)[C@H](CC(C)C)NC(=O)[C@H](Cc1c[nH]c2ccccc12)NC(=O)[C@H](CCC(=O)O)NC(=O)[C@@H](NC(=O)[C@H](CS)NC(=O)[C@H](CCC(=O)O)NC(=O)[C@H](CCCCN)NC(=O)[C@H](C)NC(=O)[C@H](C)NC(=O)[C@H](CCC(=O)O)NC(=O)[C@H](CCC(=O)O)NC(=O)[C@H](CS)NC(=O)[C@H](CC(C)C)NC(=O)[C@H](Cc1ccc(O)cc1)NC(=O)[C@H](CCC(=O)O)NC(=O)[C@@H](NC(=O)[C@@H](NC(=O)[C@H](CC(=O)O)NC(=O)[C@H](CC(N)=O)NC(=O)[C@@H](NC(=O)[C@H](Cc1ccc(O)cc1)NC(=O)[C@@H](NC(=O)CNC(=O)[C@H](CCC(=O)O)NC(=O)C(C)(C)NC(=O)[C@@H](N)Cc1c[nH]cn1)[C@@H](C)O)[C@@H](C)O)C(C)C)[C@@H](C)O)[C@@H](C)CC)C(=O)N[C@@H](CCCCN)C(=O)NCC(=O)N[C@@H](CCCCN)C(=O)N1CCC[C@H]1C(=O)N[C@@H](CO)C(=O)N[C@@H](CO)C(=O)NCC(=O)N[C@@H](C)C(=O)N1CCC[C@H]1C(=O)N1CCC[C@H]1C(=O)N1CCC[C@H]1C(=O)N[C@@H](CO)C(N)=O (HELM PEPTIDE1{H.[Aib].E.G.T.Y.T.N.D.V.T.E.Y.L.C.E.E.A.A.K.E.C.I.E.W.L.I.K.G.K.P.S.S.G.A.P.P.P.S.[am]}$$$$V2.0) | 220 pM |
| CC[C@H](C)[C@H](NC(=O)[C@H](CC(C)C)NC(=O)[C@H](Cc1c[nH]c2ccccc12)NC(=O)[C@H](CCC(=O)O)NC(=O)[C@@H](NC(=O)[C@H](CS)NC(=O)[C@H](CCC(=O)O)NC(=O)[C@H](CCCCN)NC(=O)[C@H](C)NC(=O)[C@H](C)NC(=O)[C@H](CCC(=O)O)NC(=O)[C@H](CCC(=O)O)NC(=O)[C@H](CS)NC(=O)[C@H](CC(C)C)NC(=O)[C@H](Cc1ccc(O)cc1)NC(=O)[C@H](CCC(=O)O)NC(=O)[C@@H](NC(=O)[C@@H](NC(=O)[C@H](CC(=O)O)NC(=O)[C@H](CC(N)=O)NC(=O)[C@@H](NC(=O)[C@H](Cc1ccc(O)cc1)NC(=O)[C@@H](NC(=O)CNC(=O)[C@H](CCC(=O)O)NC(=O)C(C)(C)NC(=O)[C@@H](N)Cc1c[nH]cn1)[C@@H](C)O)[C@@H](C)O)C(C)C)[C@@H](C)O)[C@@H](C)CC)C(=O)N[C@@H](CCCCN)C(=O)NCC(=O)N[C@@H](CCCCN)C(N)=O (HELM PEPTIDE1{H.[Aib].E.G.T.Y.T.N.D.V.T.E.Y.L.C.E.E.A.A.K.E.C.I.E.W.L.I.K.G.K.[am]}$$$$V2.0) | 590 pM |
| CC[C@H](C)[C@H](NC(=O)[C@H](CC(C)C)NC(=O)[C@H](Cc1c[nH]c2ccccc12)NC(=O)[C@H](CCC(=O)O)NC(=O)[C@H](CS)NC(=O)[C@H](Cc1ccccc1)NC(=O)[C@H](CCC(=O)O)NC(=O)[C@H](CCCCN)NC(=O)[C@H](C)NC(=O)[C@H](C)NC(=O)[C@H](CCC(=O)O)NC(=O)[C@H](CS)NC(=O)[C@H](CCC(=O)O)NC(=O)[C@H](CC(C)C)NC(=O)[C@H](Cc1ccc(O)cc1)NC(=O)[C@H](CCC(=O)O)NC(=O)[C@@H](NC(=O)[C@@H](NC(=O)[C@H](CC(=O)O)NC(=O)[C@H](CC(N)=O)NC(=O)[C@@H](NC(=O)[C@H](Cc1ccc(O)cc1)NC(=O)[C@@H](NC(=O)CNC(=O)[C@H](CCC(=O)O)NC(=O)C(C)(C)NC(=O)[C@@H](N)Cc1c[nH]cn1)[C@@H](C)O)[C@@H](C)O)C(C)C)[C@@H](C)O)C(=O)N[C@@H](CCCCN)C(=O)NCC(=O)N[C@@H](CCCCN)C(=O)N1CCC[C@H]1C(=O)N[C@@H](CO)C(=O)N[C@@H](CO)C(=O)NCC(=O)N[C@@H](C)C(=O)N1CCC[C@H]1C(=O)N1CCC[C@H]1C(=O)N1CCC[C@H]1C(=O)N[C@@H](CO)C(N)=O (HELM PEPTIDE1{H.[Aib].E.G.T.Y.T.N.D.V.T.E.Y.L.E.C.E.A.A.K.E.F.C.E.W.L.I.K.G.K.P.S.S.G.A.P.P.P.S.[am]}$$$$V2.0) | 280 pM |
| CC[C@H](C)[C@H](NC(=O)[C@H](CC(C)C)NC(=O)[C@H](Cc1c[nH]c2ccccc12)NC(=O)[C@H](CCC(=O)O)NC(=O)[C@H](CS)NC(=O)[C@H](Cc1ccccc1)NC(=O)[C@H](CCC(=O)O)NC(=O)[C@H](CCCCN)NC(=O)[C@H](C)NC(=O)[C@H](C)NC(=O)[C@H](CCC(=O)O)NC(=O)[C@H](CS)NC(=O)[C@H](CCC(=O)O)NC(=O)[C@H](CC(C)C)NC(=O)[C@H](Cc1ccc(O)cc1)NC(=O)[C@H](CCC(=O)O)NC(=O)[C@@H](NC(=O)[C@@H](NC(=O)[C@H](CC(=O)O)NC(=O)[C@H](CC(N)=O)NC(=O)[C@@H](NC(=O)[C@H](Cc1ccc(O)cc1)NC(=O)[C@@H](NC(=O)CNC(=O)[C@H](CCC(=O)O)NC(=O)C(C)(C)NC(=O)[C@@H](N)Cc1c[nH]cn1)[C@@H](C)O)[C@@H](C)O)C(C)C)[C@@H](C)O)C(=O)N[C@@H](CCCCN)C(=O)NCC(=O)N[C@@H](CCCCN)C(N)=O (HELM PEPTIDE1{H.[Aib].E.G.T.Y.T.N.D.V.T.E.Y.L.E.C.E.A.A.K.E.F.C.E.W.L.I.K.G.K.[am]}$$$$V2.0) | 730 pM |
| CC[C@H](C)[C@H](NC(=O)[C@H](CC(C)C)NC(=O)[C@H](Cc1c[nH]c2ccccc12)NC(=O)[C@H](CS)NC(=O)[C@@H](NC(=O)[C@H](Cc1ccccc1)NC(=O)[C@H](CCC(=O)O)NC(=O)[C@H](CCCCN)NC(=O)[C@H](C)NC(=O)[C@H](C)NC(=O)[C@H](CS)NC(=O)[C@H](CCC(=O)O)NC(=O)[C@H](CCC(=O)O)NC(=O)[C@H](CC(C)C)NC(=O)[C@H](Cc1ccc(O)cc1)NC(=O)[C@H](CCC(=O)O)NC(=O)[C@@H](NC(=O)[C@@H](NC(=O)[C@H](CC(=O)O)NC(=O)[C@H](CC(N)=O)NC(=O)[C@@H](NC(=O)[C@H](Cc1ccc(O)cc1)NC(=O)[C@@H](NC(=O)CNC(=O)[C@H](CCC(=O)O)NC(=O)C(C)(C)NC(=O)[C@@H](N)Cc1c[nH]cn1)[C@@H](C)O)[C@@H](C)O)C(C)C)[C@@H](C)O)[C@@H](C)CC)C(=O)N[C@@H](CCCCN)C(=O)NCC(=O)N[C@@H](CCCCN)C(=O)N1CCC[C@H]1C(=O)N[C@@H](CO)C(=O)N[C@@H](CO)C(=O)NCC(=O)N[C@@H](C)C(=O)N1CCC[C@H]1C(=O)N1CCC[C@H]1C(=O)N1CCC[C@H]1C(=O)N[C@@H](CO)C(N)=O (HELM PEPTIDE1{H.[Aib].E.G.T.Y.T.N.D.V.T.E.Y.L.E.E.C.A.A.K.E.F.I.C.W.L.I.K.G.K.P.S.S.G.A.P.P.P.S.[am]}$$$$V2.0) | 89 pM |
| CC[C@H](C)[C@H](NC(=O)[C@H](CC(C)C)NC(=O)[C@H](Cc1c[nH]c2ccccc12)NC(=O)[C@H](CS)NC(=O)[C@@H](NC(=O)[C@H](Cc1ccccc1)NC(=O)[C@H](CCC(=O)O)NC(=O)[C@H](CCCCN)NC(=O)[C@H](C)NC(=O)[C@H](C)NC(=O)[C@H](CS)NC(=O)[C@H](CCC(=O)O)NC(=O)[C@H](CCC(=O)O)NC(=O)[C@H](CC(C)C)NC(=O)[C@H](Cc1ccc(O)cc1)NC(=O)[C@H](CCC(=O)O)NC(=O)[C@@H](NC(=O)[C@@H](NC(=O)[C@H](CC(=O)O)NC(=O)[C@H](CC(N)=O)NC(=O)[C@@H](NC(=O)[C@H](Cc1ccc(O)cc1)NC(=O)[C@@H](NC(=O)CNC(=O)[C@H](CCC(=O)O)NC(=O)C(C)(C)NC(=O)[C@@H](N)Cc1c[nH]cn1)[C@@H](C)O)[C@@H](C)O)C(C)C)[C@@H](C)O)[C@@H](C)CC)C(=O)N[C@@H](CCCCN)C(=O)NCC(=O)N[C@@H](CCCCN)C(N)=O (HELM PEPTIDE1{H.[Aib].E.G.T.Y.T.N.D.V.T.E.Y.L.E.E.C.A.A.K.E.F.I.C.W.L.I.K.G.K.[am]}$$$$V2.0) | 160 pM |
| CC[C@H](C)[C@H](NC(=O)[C@H](Cc1ccccc1)NC(=O)[C@H](CCC(=O)O)NC(=O)[C@H](CS)NC(=O)[C@H](C)NC(=O)[C@H](C)NC(=O)[C@H](CCC(=O)O)NC(=O)[C@H](CCC(=O)O)NC(=O)[C@H](CCC(=O)O)NC(=O)[C@H](CC(C)C)NC(=O)[C@H](Cc1ccc(O)cc1)NC(=O)[C@H](CCC(=O)O)NC(=O)[C@@H](NC(=O)[C@@H](NC(=O)[C@H](CC(=O)O)NC(=O)[C@H](CC(N)=O)NC(=O)[C@@H](NC(=O)[C@H](Cc1ccc(O)cc1)NC(=O)[C@@H](NC(=O)CNC(=O)[C@H](CCC(=O)O)NC(=O)C(C)(C)NC(=O)[C@@H](N)Cc1c[nH]cn1)[C@@H](C)O)[C@@H](C)O)C(C)C)[C@@H](C)O)C(=O)N[C@@H](CCC(=O)O)C(=O)N[C@@H](Cc1c[nH]c2ccccc12)C(=O)N[C@@H](CC(C)C)C(=O)N[C@@H](CS)C(=O)N[C@@H](CCCCN)C(=O)NCC(=O)N[C@@H](CCCCN)C(=O)N1CCC[C@H]1C(=O)N[C@@H](CO)C(=O)N[C@@H](CO)C(=O)NCC(=O)N[C@@H](C)C(=O)N1CCC[C@H]1C(=O)N1CCC[C@H]1C(=O)N1CCC[C@H]1C(=O)N[C@@H](CO)C(N)=O (HELM PEPTIDE1{H.[Aib].E.G.T.Y.T.N.D.V.T.E.Y.L.E.E.E.A.A.C.E.F.I.E.W.L.C.K.G.K.P.S.S.G.A.P.P.P.S.[am]}$$$$V2.0) | 260 pM |
| CC[C@H](C)[C@H](NC(=O)[C@H](Cc1ccccc1)NC(=O)[C@H](CCC(=O)O)NC(=O)[C@H](CS)NC(=O)[C@H](C)NC(=O)[C@H](C)NC(=O)[C@H](CCC(=O)O)NC(=O)[C@H](CCC(=O)O)NC(=O)[C@H](CCC(=O)O)NC(=O)[C@H](CC(C)C)NC(=O)[C@H](Cc1ccc(O)cc1)NC(=O)[C@H](CCC(=O)O)NC(=O)[C@@H](NC(=O)[C@@H](NC(=O)[C@H](CC(=O)O)NC(=O)[C@H](CC(N)=O)NC(=O)[C@@H](NC(=O)[C@H](Cc1ccc(O)cc1)NC(=O)[C@@H](NC(=O)CNC(=O)[C@H](CCC(=O)O)NC(=O)C(C)(C)NC(=O)[C@@H](N)Cc1c[nH]cn1)[C@@H](C)O)[C@@H](C)O)C(C)C)[C@@H](C)O)C(=O)N[C@@H](CCC(=O)O)C(=O)N[C@@H](Cc1c[nH]c2ccccc12)C(=O)N[C@@H](CC(C)C)C(=O)N[C@@H](CS)C(=O)N[C@@H](CCCCN)C(=O)NCC(=O)N[C@@H](CCCCN)C(N)=O (HELM PEPTIDE1{H.[Aib].E.G.T.Y.T.N.D.V.T.E.Y.L.E.E.E.A.A.C.E.F.I.E.W.L.C.K.G.K.[am]}$$$$V2.0) | 760 pM |
